Source: ChEMBL document CHEMBL3286199, “Synthesis, in vitro antimicrobial and cytotoxic activities of novel pyrimidine-benzimidazol combinations” (Bioorg Med Chem Lett, 2014)
In brackets after ≈: the same amount, converted by molar mass.

Tests used:
[1] = test system: Escherichia coli; test: Antimicrobial activity against Escherichia coli after 18 to 24 hrs by broth microdilution method; format: functional
[2] = test system: Staphylococcus aureus; test: Antimicrobial activity against Staphylococcus aureus after 18 to 24 hrs by broth microdilution method; format: functional
[3] = test system: Bacillus subtilis; test: Antimicrobial activity against Bacillus subtilis after 18 to 24 hrs by broth microdilution method; format: functional
[4] = test system: Stenotrophomonas maltophilia; test: Antimicrobial activity against Stenotrophomonas maltophilia after 18 to 24 hrs by broth microdilution method; format: functional
[5] = test system: PC-3; test: Cytotoxicity against human PC3 cells after 72 hrs by MTT assay; format: functional, cell-based; settings: PC-3, 72 h
[6] = Cytotoxicity against human EC109 cells after 72 hrs by MTT assay; format: functional, cell-based; settings: ECa-109, 72 h
[7] = test system: MGC-803; test: Cytotoxicity against human MGC803 cells after 72 hrs by MTT assay; format: functional, cell-based; settings: MGC-803, 72 h
[8] = test system: Candida albicans; test: Antimicrobial activity against Candida albicans after 48 hrs by broth microdilution method; format: functional
[9] = test system: MCF7; test: Cytotoxicity against human MCF7 cells after 72 hrs by MTT assay; format: functional, cell-based; settings: MCF7, 72 h

Row | Structure (SMILES) | MIC [1] [µg/mL] | MIC [2] [µg/mL] | MIC [3] [µg/mL] | MIC [4] [µg/mL] | IC50 [5] [µM] | IC50 [6] [µM] | IC50 [7] [µM] | MIC [8] [µg/mL] | IC50 [9] [µM]
1 | C[C@H]1COc2c(N3CCN(C)CC3)c(F)cc3c(=O)c(C(=O)O)cn1c23.C[C@H]1COc2c(N3CCN(C)CC3)c(F)cc3c(=O)c(C(=O)O)cn1c23.O [LEVOFLOXACIN] | 0.125 | 0.5 | 0.25 | 0.25 | – | – | – | – | –
2 | COc1ccccc1Nc1cc(C)nc(SCc2nc3ccccc3[nH]2)n1 | 32 (≈ 84.8 µM) | > 128 | 32 (≈ 84.8 µM) | 8 (≈ 21.2 µM) | 70.8 | 34.4 | 56.2 | 128 (≈ 339 µM) | > 100
3 | Cc1cc(N2CCNCC2)nc(SCc2nc3ccccc3[nH]2)n1 | > 128 | > 128 | 128 (≈ 376 µM) | 32 (≈ 94 µM) | > 100 | > 100 | > 100 | > 128 | > 100
4 | Cc1cc(Nc2ccc(Br)cc2)nc(SCc2nc3ccccc3[nH]2)n1 | 128 (≈ 300 µM) | 16 (≈ 37.5 µM) | 128 (≈ 300 µM) | 4 (≈ 9.38 µM) | 37.1 | 42.9 | 26.8 | 8 (≈ 18.8 µM) | 38
5 | Cc1cc(NNC(N)=S)nc(SCc2nc3ccccc3[nH]2)n1 | > 128 | > 128 | > 128 | 128 (≈ 371 µM) | > 100 | > 100 | > 100 | 128 (≈ 371 µM) | > 100
6 | Cc1cc(NC(C)C)nc(SCc2nc3ccccc3[nH]2)n1 | > 128 | > 128 | > 128 | 32 (≈ 102 µM) | > 100 | > 100 | > 100 | 128 (≈ 408 µM) | > 100
7 | Cc1cc(N2CCOCC2)nc(SCc2nc3ccccc3[nH]2)n1 | > 128 | > 128 | > 128 | 32 (≈ 93.7 µM) | > 100 | > 100 | > 100 | > 128 | > 100
8 | Cc1cc(N(CCO)CCO)nc(SCc2nc3ccccc3[nH]2)n1 | 64 (≈ 178 µM) | > 128 | > 128 | 128 (≈ 356 µM) | > 100 | > 100 | > 100 | > 128 | > 100
9 | O=c1[nH]cc(F)c(=O)[nH]1 [FLUOROURACIL] | – | – | – | – | 4.68 | 24.1 | 8.13 | – | 7.76
10 | Cc1cc(N2CCCCC2)nc(SCc2nc3ccccc3[nH]2)n1 | > 128 | > 128 | > 128 | 64 (≈ 189 µM) | > 100 | > 100 | > 100 | 32 (≈ 94.3 µM) | > 100
11 | Cc1cc(Nc2ccc(F)cc2)nc(SCc2nc3ccccc3[nH]2)n1 | 64 (≈ 175 µM) | 32 (≈ 87.6 µM) | 64 (≈ 175 µM) | 32 (≈ 87.6 µM) | 56.2 | 69.5 | 5.77 | 8 (≈ 21.9 µM) | 42.2
12 | Cc1ccc(Nc2cc(C)nc(SCc3nc4ccccc4[nH]3)n2)cc1 | 32 (≈ 88.5 µM) | 32 (≈ 88.5 µM) | 64 (≈ 177 µM) | 8 (≈ 22.1 µM) | 56 | 57.3 | 7.39 | 64 (≈ 177 µM) | 56.5
13 | COc1ccc(Nc2cc(C)nc(SCc3nc4ccccc4[nH]3)n2)cc1 | 128 (≈ 339 µM) | 64 (≈ 170 µM) | 32 (≈ 84.8 µM) | 16 (≈ 42.4 µM) | 67.4 | 69.8 | 51.1 | 64 (≈ 170 µM) | 61.1
14 | Cc1cc(Nc2cccc(C(F)(F)F)c2)nc(SCc2nc3ccccc3[nH]2)n1 | > 128 | > 128 | > 128 | 8 (≈ 19.3 µM) | > 100 | > 100 | > 100 | > 128 | > 100
15 | OC(Cn1cncn1)(Cn1cncn1)c1ccc(F)cc1F [FLUCONAZOLE] | – | – | – | – | – | – | – | 2 (≈ 6.53 µM) | –
16 | Cc1cc(NCCO)nc(SCc2nc3ccccc3[nH]2)n1 | 64 (≈ 203 µM) | > 128 | > 128 | 64 (≈ 203 µM) | > 100 | > 100 | > 100 | > 128 | > 100
17 | Cc1cc(Nc2ccc(Cl)cc2)nc(SCc2nc3ccccc3[nH]2)n1 | 128 (≈ 335 µM) | 8 (≈ 20.9 µM) | 128 (≈ 335 µM) | 2 (≈ 5.24 µM) | 36 | 20.4 | 28.2 | 64 (≈ 168 µM) | 33.6
18 | Cc1cc(N(C)Cc2ccccc2)nc(SCc2nc3ccccc3[nH]2)n1 | > 128 | 128 (≈ 341 µM) | > 128 | 16 (≈ 42.6 µM) | > 100 | > 100 | 31.3 | 128 (≈ 341 µM) | > 100
